From patent publication EP2140864A2 (H. Lundbeck A/S, priority 2001, dated 2002)
Marks after values point to notes of the source that are not given here.

How the values were obtained:
Assay type in all cases: in vivo
[1] = system: Male Sprague-Dawley rats; assay: Rat Forced Swim Test (FST); settings: for antidepressant profile in the FST (conclusion): overall conclusion of the study
Method: The procedure used in this study was similar to that previously described (Porsolt, et al., 1978), except the water depth (30 cm in this procedure). The greater depth in this test prevented the rats from supporting themselves by touching the bottom of the cylinder with their feet. Swim sessions were conducted by placing rats in individual plexiglass cylinders (46 cm tall x 20 cm in diameter) containing 23-25°C water 30 cm deep (Porsolt, et al. used a depth of only 15 cm; also, see Detke, et al., 1995). Two swim tests were conducted always between 1200 and 1800 hours: an initial 15-min pretest followed 24 h later by a 5-minute test. […] All other test sessions were conducted between 1300 to 1700 hours. Following all swim sessions, rats were removed from the cylinders, dried with paper towels and placed in a heated cage for 15 minutes and returned to their home cages. All test sessions were videotaped using a Panasonic color video camera and recorder for scoring later.
Male Sprague-Dawley rats (Taconic Farms, NY) were used in all experiments. Rats were housed in pairs and maintained on a 12:12-h light-dark cycle. Rats were handled for 5 minutes each day for 5 days prior to behavioral testing.
The rat's behavior was rated at 5 second intervals during the 5 minute test as one of the following: • 1. Immobility- rat remained floating in the water without struggling and was only making those movements necessary to keep its head above water; • 2. Climbing - rat was making active movements with its forepaws in and out of the water, usually directed against the walls; • 3. Swimming - rat was making active swimming motions, more than necessary to merely maintain its head above water, e.g. moving around in the cylinder; and • 4. Diving - entire body of the rat was submerged.
All of the behavior scoring was done by a single rater, who was blind to the treatment condition. The rater was also present in the room throughout the entire test period.
All injections were given using 1 cc tuberculin syringe with 26 3/8 gauge needles (Becton-Dickinson, VWR Scientific, Bridgeport, NJ). The volume of injection was 1 ml/kg.
The drugs were dissolved in 100% N,N-dimethylacetamide. All administrations were given using 1 cc tuberculin syringes, to which a 3 inch, curved, stainless steel gavage needle was attached. The volume of administration was 1 ml/kg.
The compounds were dissolved in 100% N,N-dimethylacetamide. All administrations were given using 1 cc tuberculin syringes, to which a 3 inch, curved, stainless steel gavage needle was attached. The volume of administration was 1 ml/kg.
The forced swim test data (immobility, swimming, climbing, diving) were subjected to a randomized, one-way ANOVA and post hoc tests conducted using the Student-Newman-heuls test. The data were analyzed using the GBSTAT program, version 6.5 (Dynamics Microsystems, Inc., Silver Spring, MD, 1997). All data are presented as means ± S.E.M.

[2] = system: Male albino Sprague-Dawley rats; assay: Rat Social Interaction Test (SIT)
Method: Rats were allowed to acclimate to the animal care facility for 5 days and were housed singly for 5 days prior to testing. Animals were handled for 5 minutes per day. The design and procedure for the Social Interaction Test was carried out as previously described by Kennett, et al. (1997). On the test day, weight matched pairs of rats (± 5%), unfamiliar to each other, were given identical treatments and returned to their home cages. Animals were randomly divided into 5 treatment groups, with 5 pairs per group, and were given one of the following i.p. treatments: Example 92 (10, 30 or 100 mg/kg), vehicle (1 ml/kg) or chlordiazepoxide (5 mg/kg). Dosing was 1 hour prior to testing. Rats were subsequently placed in a white perspex test box or arena (54 x 37 x 26 cm), whose floor was divided up into 24 equal squares, for 15 minutes. An air conditioner was used to generate background noise and to keep the room at approximately 74°F. All sessions were videotaped using a JVC camcorder (model GR-SZ1, Elmwood Park, NJ) with either TDK (HG ultimate brand) or Sony 30 minute videocassettes. All sessions were conducted between 1:00 - 4:30 P.M. Active social interaction, defined as grooming, sniffing, biting, boxing, wrestling, following and crawling over or under, was scored using a stopwatch (Sportsline model no. 226, 1/100 sec. discriminability). The number of episodes of rearing (animal completely raises up its body on its hind limbs), grooming (licking, biting, scratching of body), and face washing (i.e. hands are moved repeatedly over face), and number of squares crossed were scored. Passive social interaction (animals are lying beside or on top of each other) was not scored. All behaviors were assessed later by an observer who was blind as to the treatment of each pair. At the end of each test, the box was thoroughly wiped with moistened paper towels.
Male albino Sprague-Dawley rats (Taconic Farms, NY) were housed in pairs under a 12 hr light dark cycle (lights on at 0700 hrs.) with free access to food and water.
Example 92 was dissolved in 100% DMSO (Sigma Chemical Co., St. Louis, MO). Chlordiazepoxide (purchased from Sigma Chemical Co., St. Louis, MO) was dissolved in double distilled water. The vehicle consisted of 50% DMSO (v/v). All drug solutions were made up 10 minutes prior to injection and the solutions were discarded.
Example 34 was dissolved in 5% lactic acid, v/v. The vehicle consisted of 100% dimethylacetamide (DMA) and this was used to make up all drug solutions. All drug solutions were made up fresh each day and any unused solutions were discarded at the end of the test day. The volume of drug solution administered was 1 ml/kg.
The social interaction data (time interacting, rearing and squares crossed) were subjected to a randomized, one-way ANOVA and post hoc tests conducted using the Student-Newman-Keuls test. The data were subjected to a test of normality (Shapiro-Wilk test). The data were analyzed using the GBSTAT program, version 6.5 (Dynamics Microsystems, Inc., Silver Spring, MD, 1997). All data are presented as means ± S.E.M.

[3] = system: Male albino Sprague-Dawley rats; assay: Rat Social Interaction Test (SIT); settings: for Social Interaction: unfamiliar cage mates in a familiar arena
[4] = 3 mg/kg p.o., single administration, 1 hr. before test
[5] = 10 mg/kg p.o., single administration, 1 hr. before test
[6] = 30 mg/kg p.o., single administration, 1 hr. before test
[7] = 30 mg/kg i.p., single injection, 5 minute test
[8] = 10 mg/kg i.p., 1 hour prior to testing
[9] = 100 mg/kg i.p., 1 hour prior to testing
[10] = 30 mg/kg i.p., 1 hour prior to testing
[11] = 0.3 mg/kg p.o., single administration, 1 hr. before test
[12] = 1 mg/kg p.o., single administration, 1 hr. before test
[13] = 0.03 mg/kg p.o., one hour before test
[14] = 0.1 mg/kg p.o., one hour before test
[15] = 0.3 mg/kg p.o., one hour before test
[16] = 1 mg/kg p.o., one hour before test

Work on `Cc1ccc(Nc2cc(N3CCCCC3)nc(N(C)CCc3ccccc3)n2)cc1` [Example 22] yielded a Climbing [1, 4] of 2.0 ± 0.6, a Diving [1, 4] of 0.4 ± 0.4 and an Immobility [1, 4] of 50 ± 0.9. The Swimming [1, 4] was 7.6 ± 0.5, the Climbing [1, 5] was 2.9 ± 0.5 and the Diving [1, 5] was 0.4 ± 0.3. The Immobility [1, 5] was 41 ± 1.3^c, the Swimming [1, 5] was 15.3 ± 0.8^g and the Climbing [1, 6] was 5.2 ± 1.0^a. The Diving [1, 6] was 0.0 ± 0.0, the Immobility [1, 6] was 31 ± 2.8^b and the Swimming [1, 6] was 23.2 ± 2.0^f. For the same compound, the “antidepressant profile in the FST (conclusion)” value (“antidepressant profile” below) [1] was “has antidepressant properties”.
`O=C1C(=Nc2ccc(Br)cc2)c2ccccc2N1c1ccccc1` [Example 98, 3-[(4-BROMOPHENYL)IMINO]-1-PHENYL-1,3-DIHYDRO-2H-INDOL-2-ONE] was tested, and the Climbing [1, 4] was 4.3 ± 0.9^b, the Diving [1, 4] was 0.1 ± 0.1 and the Immobility [1, 4] was 35 ± 2.6^a. The Swimming [1, 4] was 20.4 ± 1.9^c, the Climbing [1, 5] was 2.4 ± 0.3 and the Diving [1, 5] was 0.8 ± 0.4. For the same compound, the Immobility [1, 5] was 39 ± 1.1^a, the Swimming [1, 5] was 17.6 ± 1.0^c and the Climbing [1, 6] was 2.0 ± 0.3. For the same compound, the Diving [1, 6] was 0.2 ± 0.2, the Immobility [1, 6] was 38 ± 2.3^a and the Swimming [1, 6] was 20.3 ± 2.1^c. The “antidepressant profile” value [1] was “resembling that of the clinically established antidepressant fluoxetine”.
`O=C1C(=Nc2ccc(C(F)(F)F)cc2)c2ccccc2N1c1ccccc1` [Example 95, 1-PHENYL-3-[[4-(TRIFLUOROMETHYL)PHENYL]IMINO]-1,3-DIHYDRO-2H-INDOL-2-ONE] was tested, and the Climbing [1, 4] was 2.6 ± 0.8, the Diving [1, 4] was 0.0 ± 0.0 and the Immobility [1, 4] was 40 ± 3.3. It also gave a Swimming [1, 4] of 17.1 ± 2.5, a Climbing [1, 5] of 1.3 ± 0.5 and a Diving [1, 5] of 0.1 ± 0.1. The Immobility [1, 5] was 52 ± 1.2^a, the Swimming [1, 5] was 6.9 ± 0.9^b and the Climbing [1, 6] was 1.0 ± 0.3. For the same compound, the Diving [1, 6] was 0.0 ± 0.0, the Immobility [1, 6] was 54 ± 0.9^a and the Swimming [1, 6] was 4.8 ± 0.7^b. For the same compound, the “antidepressant profile” value [1] was “does not produce antidepressant-like actions”.
`O=C1C(=Nc2cc(Cl)cc(Cl)c2)c2ccccc2N1c1ccccc1` [Example 103, 3-[(3,5-DICHLOROPHENYL)IMINO]-1-PHENYL-1,3-DIHYDRO-2H-INDOL-2-ONE] gave a Climbing [1, 4] of 2.8 ± 0.6, a Diving [1, 4] of 0.5 ± 0.4 and an Immobility [1, 4] of 44 ± 2.7. The Climbing [1, 5] was 3.5 ± 0.6, the Diving [1, 5] was 0.4 ± 0.2 and the Immobility [1, 5] was 42 ± 2.2. It also gave a Swimming [1, 5] of 14.3 ± 1.6, a Climbing [1, 6] of 4.8 ± 0.7 and a Diving [1, 6] of 1.1 ± 0.5. The Immobility [1, 6] was 32 ± 1.8^a, the Swimming [1, 6] was 22.7 ± 1.1^c and the “antidepressant profile” value [1] was “has antidepressant properties”.
Work on `O=C1C(=Nc2cccc(C(F)(F)F)c2)c2ccccc2N1c1ccccc1` [Example 92, 1-PHENYL-3- [[3-(TRIFLUOROMETHYL)PHENYL]IMINO]-1,3-DIHYDRO-2H-INDOL-2-ONE] yielded a Climbing ([1]; 1 mg/kg i.p., single injection, 5 minute test) of 11.7 ± 1.1 counts, a Climbing ([1]; 3 mg/kg i.p., single injection, 5 minute test) of 14.6 ± 1.5 counts and a Climbing [1, 7] of 8.6 ± 1.7 counts. For the same compound, the Immobility [1, 7] was 25 ± 3.5 counts, the “Squares Crossed” value [2, 8] was 298 ± 40 and the “Grooming bouts” value [2, 9] was 6.8 ± 1.3. The Rearings [2, 9] was 31 ± 4, the “Grooming bouts” value [3, 8] was 6.1 ± 0.5 and the Rearings [3, 8] was 47 ± 8^a. For the same compound, the “Grooming bouts” value [3, 10] was 6.2 ± 0.7, the Rearings [3, 10] was 45 ± 5^b and the “Squares Crossed” value [3, 10] was 368 ± 36. The “Squares Crossed” value [3, 9] was 195 ± 19^c.
`COC[C@@H]1[C@@H](c2ccccc2)OCCN1c1nc(Nc2ccc(C)cc2)cc(N2CCCCC2)n1` [Example 49] gave a Climbing [1, 4] of 3.0 ± 0.7, a Diving [1, 4] of 1.0 ± 0.7 and an Immobility [1, 4] of 43 ± 1.9. For the same compound, the Swimming [1, 4] was 13.1 ± 1.4, the Climbing [1, 5] was 2.4 ± 0.7 and the Diving [1, 5] was 0.0 ± 0.0. For the same compound, the Immobility [1, 5] was 48 ± 1.7, the Swimming [1, 5] was 10.0 ± 1.0 and the Climbing [1, 6] was 2.3 ± 0.4. For the same compound, the Diving [1, 6] was 0.4 ± 0.4, the Immobility [1, 6] was 41 ± 2.0^a and the Swimming [1, 6] was 16.7 ± 1.3^d.
In the case of `Cc1ccc(Nc2cc(N3CCCCC3)nc(N3CCN(c4ncccc4C(F)(F)F)CC3)n2)cc1` [Example 34], the Climbing [1, 11] is reported as 3.3 ± 0.7, the Diving [1, 11] is reported as 0.2 ± 0.1 and the Immobility [1, 11] is reported as 45 ± 1.5^a. For the same compound, the Swimming [1, 11] was 11.6 ± 0.9^d, the Climbing [1, 12] was 5.0 ± 0.8^c and the Diving [1, 12] was 0.3 ± 0.2. The Immobility [1, 12] was 35 ± 1.9^b, the Swimming [1, 12] was 19.6 ± 1.3^d,e and the Climbing [1, 4] was 4.3 ± 0.8. The Diving [1, 4] was 0.3 ± 0.3, the Immobility [1, 4] was 35 ± 2.0^b and the Swimming [1, 4] was 20.8 ± 1.3^d,e. For the same compound, the Climbing [1, 5] was 2.0 ± 0.4, the Diving [1, 5] was 0.4 ± 0.3 and the Immobility [1, 5] was 49 ± 1.4. For the same compound, the Swimming [1, 5] was 8.2 ± 1.2, the “antidepressant profile” value [1] was “resembles that of antidepressants” and the “anxiolytic profile in the Social Interaction Test (conclusion)” value ([2]; overall conclusion of the study) was “produces an anxioltyic action”. The Grooming bouts [3, 13] was 4.0 ± 0.4^&, the Rearing [3, 13] was 27 ± 3 and the “Squares Crossed” value [3, 13] was 312 ± 23. For the same compound, the “Social Interaction” value [3, 13] was 62 ± 11 s, the Grooming bouts [3, 14] was 7.6 ± 0.5^+ and the Rearing [3, 14] was 40 ± 5. The “Squares Crossed” value [3, 14] was 295 ± 40, the “Social Interaction” value [3, 14] was 66 ± 7 s and the Grooming bouts [3, 15] was 7.2 ± 1.1. The Rearing [3, 15] was 27 ± 2^S, the “Squares Crossed” value [3, 15] was 363 ± 17 and the “Social Interaction” value [3, 15] was 53 ± 6 s. The Grooming bouts [3, 16] was 7.3 ± 0.8, the Rearing [3, 16] was 40 ± 1 and the “Squares Crossed” value [3, 16] was 343 ± 15^@. For the same compound, the “Social Interaction” value [3, 16] was 69 ± 6 s and the “increase in the duration of social interaction compared to vehicle” value ([3]; 0.03, 0.1, 0.3 or 1 mg/kg p.o., single administration) was 2-2.6 fold.
